Measured values from the supplement of paper PMC10307832.

Tests used:
Experiment in all cases: relative viability (nuclei count vs DMSO), 5 days (fraction); higher = more cells survive
[1] = compound: Cn1c(=O)n(-c2ccc(C(C)(C)C#N)cc2)c2c3cc(-c4cnc5ccccc5c4)ccc3ncc21 [Dactolisib] + CC(C)C[C@H](NC(=O)[C@H](Cc1ccccc1)NC(=O)c1cnccn1)B(O)O [Bortezomib] (partner 0.002 µM)
Procedure, shortened: (§1)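 Relative viability is defined as nuclei in treated wells over nuclei in vehicle wells. Duplicate plates were run and medians reported. Lung cancer cell lines in 1536-well plates were dosed by pin tool one day after seeding, with one drug or with a fixed anchor-drug dose plus five library-drug doses (not always all listed) in √10 steps, and nuclei were counted after 5 days.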

[2] = compound: C1CCC(CC1)N(CCNCCC2=C3C(=C(C=C2)O)NC(=O)CO3)C(=O)CCNCCC4=CC(=C(C=C4)Cl)Cl [AZ505] + Cc1cc(Nc2cc(N3CCN(C)CC3)nc(Sc3ccc(NC(=O)C4CC4)cc3)n2)n[nH]1 [Tozasertib] (partner 0.1 µM)
Procedure, shortened: as §1

[3] = compound: Cn1c(=O)n(-c2ccc(C(C)(C)C#N)cc2)c2c3cc(-c4cnc5ccccc5c4)ccc3ncc21 [Dactolisib] + CS(=O)(=O)CCNCc1ccc(-c2ccc3ncnc(Nc4ccc(OCc5cccc(F)c5)c(Cl)c4)c3c2)o1 [Lapatinib] (partner 2 µM)
Procedure, shortened: as §1

[4] = compound: C1CCC(CC1)N(CCNCCC2=C3C(=C(C=C2)O)NC(=O)CO3)C(=O)CCNCCC4=CC(=C(C=C4)Cl)Cl [AZ505] + N=C(N)NC(=N)NCCc1ccccc1 [Phenformin] (partner 250 µM)
Procedure, shortened: as §1

| Cell Line | relative viability ([1]; first compound 0.002 µM) | relative viability ([1]; first compound 0.006325 µM) | relative viability ([1]; first compound 0.02 µM) | relative viability ([1]; first compound 0.06325 µM) | relative viability ([1]; first compound 0.2 µM) | relative viability ([2]; first compound 0.08 µM) | relative viability ([2]; first compound 0.253 µM) | relative viability ([2]; first compound 0.8 µM) | relative viability ([2]; first compound 2.53 µM) | relative viability ([2]; first compound 8 µM) | relative viability ([3]; first compound 0.002 µM) | relative viability ([3]; first compound 0.006325 µM) | relative viability ([3]; first compound 0.02 µM) | relative viability ([3]; first compound 0.06325 µM) | relative viability ([3]; first compound 0.2 µM) | relative viability ([4]; first compound 0.08 µM) | relative viability ([4]; first compound 0.253 µM) | relative viability ([4]; first compound 0.8 µM) | relative viability ([4]; first compound 2.53 µM) | relative viability ([4]; first compound 8 µM) |
| --- | --- | --- | --- | --- | --- | --- | --- | --- | --- | --- | --- | --- | --- | --- | --- | --- | --- | --- | --- | --- |
| HCC-15 | 0.977 | 0.987 | 0.961 | 0.823 | 0.554 | 0.363 | 0.299 | 0.36 | 0.344 | 0.322 | 0.752 | 0.884 | 0.755 | 0.594 | 0.367 | 0.411 | 0.476 | 0.474 | 0.415 | 0.446 |
| HCC-44 | 0.932 | 0.84 | 0.968 | 0.535 | 0.516 | 0.887 | 0.992 | 0.922 | 0.88 | 1.04 | 1.09 | 1 | 1 | 0.68 | 0.547 | 0.144 | – | 0.294 | 0.247 | 0.207 |
| HCC-78 | 0.483 | 0.43 | 0.404 | 0.269 | 0.203 | 0.351 | 0.65 | 0.381 | 0.312 | 0.345 | 0.769 | 0.753 | 0.612 | 0.47 | 0.493 | 0.531 | 0.611 | 0.707 | 0.731 | 0.728 |
| HCC-366 | 0.963 | 1.09 | 0.988 | 0.593 | 0.481 | 0.128 | 0.113 | 0.152 | 0.132 | 0.0879 | 0.897 | 0.988 | 1.03 | 0.445 | 0.613 | 0.577 | 0.632 | 0.572 | 0.56 | 0.582 |
| HCC-827 | 1.12 | 1.01 | 1.11 | 1.14 | 1.05 | 0.421 | 0.426 | 0.448 | 0.436 | 0.447 | 0.209 | 0.206 | 0.201 | 0.172 | 0.196 | 0.401 | 0.427 | 0.453 | 0.44 | 0.425 |
| HOP-62 | 0.884 | 0.867 | 0.518 | 0.41 | 0.252 | 0.386 | 0.436 | 0.385 | 0.427 | 0.383 | 1.28 | 1.04 | 0.891 | 0.756 | 0.667 | 0.63 | 0.797 | 0.67 | 0.725 | 0.784 |
| LC-2-ad | 1.09 | – | 1.04 | 0.734 | 0.52 | 0.478 | 0.415 | 0.436 | 0.411 | 0.413 | 1.01 | – | 1.06 | 0.728 | 0.437 | 0.561 | 0.538 | 0.572 | 0.64 | 0.579 |
| LCLC-97TM1 | 0.766 | 0.489 | 0.528 | 0.525 | 0.128 | 0.218 | 0.196 | 0.214 | 0.316 | 0.302 | 0.926 | 0.558 | 0.842 | 0.269 | 0.317 | 0.386 | 0.445 | 0.416 | 0.428 | 0.462 |
| LOU-NH91 | 0.526 | 0.502 | 0.49 | 0.458 | 0.43 | 0.654 | 0.696 | 0.577 | 0.591 | 0.625 | 0.725 | 0.782 | 0.666 | 0.567 | 0.51 | 0.685 | 0.684 | 0.604 | 0.805 | 0.729 |
| LU99A | 1.12 | 0.903 | 0.543 | 0.366 | 0.249 | – | 0.306 | 0.279 | 0.286 | 0.332 | 0.94 | 0.828 | 0.516 | 0.336 | 0.257 | – | 0.741 | 0.987 | 0.715 | 0.853 |
| LXF-289 | 1.07 | 1.03 | 1.07 | 0.971 | 0.648 | 0.2 | 0.172 | 0.183 | 0.21 | 0.229 | 0.92 | 0.906 | 0.916 | 0.884 | 0.731 | 0.488 | 0.491 | 0.512 | 0.509 | 0.514 |
| NCI-H23 | 1.04 | 0.924 | 0.798 | 0.247 | 0.294 | 0.388 | – | 0.392 | 0.402 | 0.327 | 1.15 | 1.1 | 0.886 | 0.292 | 0.313 | 0.731 | – | 0.741 | 0.759 | 0.821 |
| NCI-H322M | 1.21 | 1.24 | 1.13 | 1.07 | 0.838 | 0.451 | 0.478 | 0.467 | 0.484 | 0.465 | 0.612 | 0.583 | 0.616 | 0.527 | 0.508 | 0.75 | 0.756 | 0.718 | 0.728 | 0.826 |
| NCI-H460 | 1.28 | 1.11 | 0.984 | 0.106 | 0.0739 | 0.481 | 0.0927 | 0.551 | 0.204 | 0.299 | 0.965 | 0.945 | 0.927 | 0.234 | 0.112 | 0.448 | 0.534 | 0.48 | 0.482 | 0.551 |
| NCI-H520 | 0.397 | 0.715 | 0.263 | 0.121 | 0.134 | 0.441 | 0.389 | 0.44 | 0.469 | 0.463 | 0.888 | 0.753 | 0.655 | 0.221 | 0.128 | 0.556 | 0.49 | 0.683 | 0.825 | 0.529 |
| NCI-H596 | 0.939 | 0.989 | 0.908 | 0.769 | 0.357 | 0.845 | 0.894 | 0.708 | 0.821 | 0.726 | 1.02 | 1.06 | 0.909 | 0.574 | 0.369 | 0.619 | 0.833 | 0.859 | 0.719 | 0.754 |
